Target: T1, estrogen receptors (Homo sapiens, UniProt P03372)
T1 construct: expressed in transfected cells; host or cells: HELN-ERα cell line (HeLa-derived, per own knowledge of Escande et al. 2006)
T1 sequence (P03372 1-595): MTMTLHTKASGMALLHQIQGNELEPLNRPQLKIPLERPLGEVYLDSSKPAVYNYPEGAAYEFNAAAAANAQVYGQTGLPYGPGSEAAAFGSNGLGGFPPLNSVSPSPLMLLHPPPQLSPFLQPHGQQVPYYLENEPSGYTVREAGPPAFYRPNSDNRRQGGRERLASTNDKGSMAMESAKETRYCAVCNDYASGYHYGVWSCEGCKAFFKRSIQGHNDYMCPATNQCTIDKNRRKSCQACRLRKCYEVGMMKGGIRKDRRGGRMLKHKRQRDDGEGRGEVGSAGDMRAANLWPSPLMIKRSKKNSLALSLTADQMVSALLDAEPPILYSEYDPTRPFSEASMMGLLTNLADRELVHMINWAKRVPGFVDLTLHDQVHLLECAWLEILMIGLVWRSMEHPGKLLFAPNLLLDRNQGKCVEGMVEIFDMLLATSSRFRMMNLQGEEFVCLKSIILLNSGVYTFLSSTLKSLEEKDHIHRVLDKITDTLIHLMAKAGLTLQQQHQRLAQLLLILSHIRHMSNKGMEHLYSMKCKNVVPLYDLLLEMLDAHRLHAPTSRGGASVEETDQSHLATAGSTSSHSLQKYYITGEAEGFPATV
Experiment: Test for toxicity with respect to estrogen receptors on the HELN-ERα cell line
Type: cell-based
Conditions: for interaction with estrogen receptors (% of antagonist activity with respect to estradiol (E2) at 10 nM): FIG. 12, result in words
Experimental: A test for toxicity with respect to estrogen receptors was carried out for the IDF, PDF, GDF and BDF macrobisphenols, according to the method set out in the publication by Molina-Molina et al., 2008 (Toxicol. Appl. Pharmacol., doi: 10.1016/j.taap.2008.07.017), on the HELN-ERα cell line, described in the publication by Escande et al., 2006 (Biochemical Pharmacology, 71, 1459-1469).
The results obtained, expressed as % of antagonist activity with respect to the activity of estradiol (E2) at 10 nM, as a function of the monomer concentration, are shown in FIG. 12.

Row | SMILES | percentage activity with respect to the activity of estradiol (E2) at 10 nM (at 10^−5 M) [%] | percentage activity with respect to the activity of estradiol (E2) at 10 nM (at 10^−6 M) [%] | interaction with estrogen receptors (% of antagonist activity with respect to estradiol (E2) at 10 nM)
1 | CC(C)(c1ccc(O)cc1)c1ccc(O)cc1 [bisphenol A, reference compound] | 60 | 45 | 
2 | COc1cc(CCC(=O)OCCCCOC(=O)CCc2ccc(O)c(OC)c2)ccc1O [BDF, butane-1,4-di(dihydroferulate)] |  |  | interact only very little
3 | COc1cc(CCC(=O)OCC(O)COC(=O)CCc2ccc(O)c(OC)c2)ccc1O [GDF, glycerol-3-di(dihydroferulate)] |  |  | interact only very little
4 | COc1cc(CCC(=O)O[C@H]2CO[C@H]3[C@@H]2OC[C@H]3OC(=O)CCc2ccc(O)c(OC)c2)ccc1O [IDF, isosorbide-2,5-(dihydroferulate)] |  |  | interact only very little
5 | COc1cc(CCC(=O)OCCCOC(=O)CCc2ccc(O)c(OC)c2)ccc1O [PDF, propane-1,3-di(dihydroferulate)] |  |  | interact only very little

— US10167412B2, “Phenol polymer with 5,5′-biaryl bonds, method for preparing same, and uses thereof” (INSTITUT NATIONAL DE LA RECHERCHE AGRONOMIQUE, priority 2013, dated 2019)
